This note sets out measurements from patent US20150119394A1, “Insulin-Like Growth Factor-1 Receptor Inhibitors” (Merck Sharp & Dohme Corp., priority 2012, published 2015).

For this assay, the target named is T1, intracellular kinase domain of human IGF-1R (GST fusion protein) (Homo sapiens, UniProt P08069).
T1 construct: IGFRK and IRK enzyme used for the assay was intracellular kinase domain of human IGF-1R; GST; made in house
T1 sequence (P08069 999-1274 limits assumed): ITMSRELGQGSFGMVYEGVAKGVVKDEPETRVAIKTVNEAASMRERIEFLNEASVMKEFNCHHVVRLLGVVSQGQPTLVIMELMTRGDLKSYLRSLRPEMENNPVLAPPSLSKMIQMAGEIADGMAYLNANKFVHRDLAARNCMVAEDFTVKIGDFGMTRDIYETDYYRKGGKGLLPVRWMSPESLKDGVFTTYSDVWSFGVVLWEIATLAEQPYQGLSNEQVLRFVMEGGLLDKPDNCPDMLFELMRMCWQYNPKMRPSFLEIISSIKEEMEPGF
Description: In vitro IGF-1R kinase assay (HTRF). Type of assay: biochemical. The conditions noted are these: ATP 20 μM, IGFRK 0.25 nM. As to the method: The in vitro kinase assays using IGF-1R and IR kinase GST fusion proteins were conducted using a homogeneous time-resolved fluorescence (HTRF) format. Kinase reactions were carried out in a 384-well plate format in a final volume of 20 μL. The standard enzyme reaction buffer consisted of 50 mM Tris HCL (pH: 7.4), 1 mM EGTA, 10 mM MgCl2, 2 mM DTT, 0.01% Tween-20, IGF-1R/IR kinase enzyme, poly GT peptide substrate (Perkin Elmer [Ulight Glu-Tyr (4:1)]n) and ATP [concentration equivalent to Kmapp] […] Briefly, 2.5 μL enzyme and 2.5 μL inhibitor was preincubated for 10 minutes at 23° C. followed by the addition of 2.5 μL of poly GT substrate (final concentration of 50 nM). Reaction was initiated with the addition of 2.5 μL of ATP (final concentration of 20 μM for IGF-1R assay and 10 μM for IR assay). After 1 hour incubation at 23° C., the kinase reaction was stopped with the addition of 5 μL EDTA (final concentration of 10 mM in 20 μL). Europium cryptate—labeled antiphosphotyrosine antibody PY20 (5 μL) was added (final concentration of 2 nM) and the mixture was allowed to equilibrate for 1 hour at 23° C. followed by reading the plate in an Envision plate reader.
The intensity of light emission at 665 nm was directly proportional to the level of substrate phosphorylation. The IC50 values for inhibitors were determined by a four-parameter sigmoidal curve fit (Sigma plot or Graph pad).
IGFRK and IRK enzyme used for the assay was intracellular kinase domain of human IGF-1R and human IR cloned and expressed as GST fusion proteins using the baculovirus expression system and purified using glutathione—Sepharose column.
The term IC50 denotes the concentration needed to halve the response being measured. Low values mean inhibition by little substance, high ones a need for much substance. In turn, `NC(=O)c1[nH]c2ccc(Cl)cc2c1S(=O)(=O)N1CCO[C@H](COc2ccccc2-c2cccnc2F)C1` [Compound 57, (S)-5-chloro-3-((2-((2-(2-fluoropyridin-3-yl)phenoxy)methyl)morpholino)sulfonyl)-1H-indole-2-carboxamide] came in with an IC50 above 1000 nM. To `NC(=O)c1[nH]c2ccc(Cl)cc2c1S(=O)(=O)N1CCO[C@H](COc2ccc(-c3ccccc3)nc2)C1` [Compound 79, (S)-5-chloro-3-((2-(((6-phenylpyridin-3-yl)oxy)methyl)morpholino)sulfonyl)-1H-indole-2-carboxamide] belongs 25.4 nM; to `NC(=O)c1[nH]c2ccc(Cl)cc2c1S(=O)(=O)N1CCO[C@H](COc2cccc(-c3ccncc3)c2)C1` [Compound 2, (S)-5-chloro-3-((2-((3-(pyridin-4-yl)phenoxy)methyl)morpholino)sulfonyl)-1H-indole-2-carboxamide], 8.5 nM. Compound `Cc1cccc(-c2cccc(OC[C@@H]3CN(S(=O)(=O)c4c(C(N)=O)[nH]c5ccc(Cl)cc45)CCO3)c2)c1` [Compound 14, (S)-5-chloro-3-((2-(((3′-methyl-[1,1′-biphenyl]-3-yl)oxy)methyl)morpholino)sulfonyl)-1H-indole-2-carboxamide] returned an IC50 above 100 nM.

In turn, `NC(=O)c1[nH]c2ccc(Cl)cc2c1S(=O)(=O)N1CCO[C@H](COc2ccc(-c3cncnc3)cc2)C1` [Compound 48, (S)-5-chloro-3-((2-((4-(pyrimidin-5-yl)phenoxy)methyl)morpholino)sulfonyl)-1H-indole-2-carboxamide] registered an IC50 of 4 nM. `Cc1ccc(-c2ccc(OC[C@@H]3CN(S(=O)(=O)c4c(C(N)=O)[nH]c5ccc(Cl)cc45)CCO3)cc2)cn1` [Compound 52, (S)-5-chloro-3-((2-((4-(6-methylpyridin-3-yl)phenoxy)methyl)morpholino)sulfonyl)-1H-indole-2-carboxamide]: the half-maximal inhibitory concentration (IC50) was above 100 nM. Turning to `COc1ccc(-c2cc(OC[C@@H]3CN(S(=O)(=O)c4c(C(N)=O)[nH]c5ccc(Cl)cc45)CCO3)ccc2C)cn1` [Compound 25, (S)-5-chloro-3-((2-((3-(6-methoxypyridin-3-yl)-4-methylphenoxy)methyl)morpholino)sulfonyl)-1H-indole-2-carboxamide], the IC50 worked out at 53.3 nM. To `COc1ccccc1-c1ccccc1OC[C@@H]1CN(S(=O)(=O)c2c(C(N)=O)[nH]c3ccc(Cl)cc23)CCO1` [Compound 58, (S)-5-chloro-3-((2-(((2′-methoxy-[1,1′-biphenyl]-2-yl)oxy)methyl)morpholino)sulfonyl)-1H-indole-2-carboxamide] belongs above 1000 nM; to `NC(=O)c1[nH]c2ccc(Cl)cc2c1S(=O)(=O)N1CCO[C@H](COc2ccccc2-c2cccc(F)c2)C1` [Compound 64, (S)-5-chloro-3-((2-(((3′-fluoro-[1,1′-biphenyl]-2-yl)oxy)methyl)morpholino)sulfonyl)-1H-indole-2-carboxamide], above 1000 nM. In the case of `Cc1cc(OC[C@@H]2CN(S(=O)(=O)c3c(C(N)=O)[nH]c4ccc(Cl)cc34)CCO2)ccc1-c1cccnc1` [Compound 66, (S)-5-chloro-3-((2-((3-methyl-4-(pyridin-3-yl)phenoxy)methyl)morpholino)sulfonyl)-1H-indole-2-carboxamide], the IC50 came out at 18.7 nM.

As for `Cc1cc(OC[C@@H]2CN(S(=O)(=O)c3c(C(N)=O)[nH]c4ccc(Cl)cc34)CCO2)ccc1-c1cncnc1` [Compound 71, (S)-5-chloro-3-((2-((3-methyl-4-(pyrimidin-5-yl)phenoxy)methyl)morpholino)sulfonyl)-1H-indole-2-carboxamide], the IC50 is 5.3 nM. `NC(=O)c1[nH]c2ccc(Cl)cc2c1S(=O)(=O)N1CCO[C@H](COc2cncc(-c3ccccc3)c2)C1` [Compound 76, (S)-5-chloro-3-((2-(((5-phenylpyridin-3-yl)oxy)methyl)morpholino)sulfonyl)-1H-indole-2-carboxamide] returned an IC50 above 1000 nM.

In the case of `NC(=O)c1[nH]c2ccc(Cl)cc2c1S(=O)(=O)N1CCO[C@H](COc2cccc(-c3ccccc3)n2)C1` [Compound 80, (S)-5-chloro-3-((2-(((6-phenylpyridin-2-yl)oxy)methyl)morpholino)sulfonyl)-1H-indole-2-carboxamide], half-maximal inhibition (IC50) was put at 47.1 nM. Take `NC(=O)c1[nH]c2ccc(Cl)cc2c1S(=O)(=O)N1CCO[C@H](COc2ccc(-c3ccccc3Cl)cc2)C1` [Compound 83, (S)-5-chloro-3-((2-(((2′-chloro-[1,1′-biphenyl]-4-yl)oxy)methyl)morpholino)sulfonyl)-1H-indole-2-carboxamide]: the IC50 turned out to be 97 nM. “(S)-5-chloro-3-((2-((3′-(dimethylamino)-[1,1′-biphenyl]-3-yl)oxy)methyl)morpholino)sulfonyl)-1H-indole-2-carboxamide [Compound 9]” displayed an IC50 of 220 nM.

For the compound `COc1ccc(-c2ccccc2OC[C@@H]2CN(S(=O)(=O)c3c(C(N)=O)[nH]c4ccc(Cl)cc34)CCO2)cn1` [Compound 61, (S)-5-chloro-3-((2-((2-(6-methoxypyridin-3-yl)phenoxy)methyl)morpholino)sulfonyl)-1H-indole-2-carboxamide], the IC50 was above 1000 nM. In the case of `NC(=O)c1[nH]c2ccc(Cl)cc2c1S(=O)(=O)N1CCO[C@H](COc2cccc(-c3ccnc(F)c3)c2)C1` [Compound 13, (S)-5-chloro-3-((2-((3-(2-fluoropyridin-4-yl)phenoxy)methyl)morpholino)sulfonyl)-1H-indole-2-carboxamide], the IC50 was 3.4 nM. The value for `COc1ccccc1-c1ccc(OC[C@@H]2CN(S(=O)(=O)c3c(C(N)=O)[nH]c4ccc(Cl)cc34)CCO2)cc1` [Compound 43, (S)-5-chloro-3-((2-(((2′-methoxy-[1,1′-biphenyl]-4-yl)oxy)methyl)morpholino)sulfonyl)-1H-indole-2-carboxamide] was above 100 nM.

In turn, `Cc1ncccc1-c1ccccc1OC[C@@H]1CN(S(=O)(=O)c2c(C(N)=O)[nH]c3ccc(Cl)cc23)CCO1` [Compound 63, (S)-5-chloro-3-((2-((2-(2-methylpyridin-3-yl)phenoxy)methyl)morpholino)sulfonyl)-1H-indole-2-carboxamide] showed an IC50 above 1000 nM. To `COc1ncc(-c2cccc(OC[C@@H]3CN(S(=O)(=O)c4c(C(N)=O)[nH]c5ccc(Cl)cc45)CCO3)c2)cn1` [Compound 16, (S)-5-chloro-3-((2-((3-(2-methoxypyrimidin-5-yl)phenoxy)methyl)morpholino)sulfonyl)-1H-indole-2-carboxamide] belongs 2 nM; to `NC(=O)c1[nH]c2ccc(Cl)cc2c1S(=O)(=O)N1CCO[C@H](COc2ccc(F)c(-c3cccnc3)c2)C1` [Compound 26, (S)-5-chloro-3-((2-((4-fluoro-3-(pyridin-3-yl)phenoxy)methyl)morpholino)sulfonyl)-1H-indole-2-carboxamide], 11.2 nM; to `NC(=O)c1[nH]c2ccc(Cl)cc2c1S(=O)(=O)N1CCO[C@H](COc2ncnc3ccccc23)C1` [Compound 91, (S)-5-chloro-3-((2-((quinazolin-4-yloxy)methyl)morpholino)sulfonyl)-1H-indole-2-carboxamide], above 100 nM. To `NC(=O)c1[nH]c2ccc(Cl)cc2c1S(=O)(=O)N1CCO[C@H](COc2cccc(-c3cccc(F)c3)c2)C1` [Compound 12, (S)-5-chloro-3-((2-(((3′-fluoro-[1,1′-biphenyl]-3-yl)oxy)methyl)morpholino)sulfonyl)-1H-indole-2-carboxamide] belongs above 100 nM. `Cc1cc(OC[C@@H]2CN(S(=O)(=O)c3c(C(N)=O)[nH]c4ccc(Cl)cc34)CCO2)ccc1-c1cccnc1F` [Compound 68, (S)-5-chloro-3-((2-((4-(2-fluoropyridin-3-yl)-3-methylphenoxy)methyl)morpholino)sulfonyl)-1H-indole-2-carboxamide] came in with an IC50 of 37.9 nM.

`COc1ccc(-c2cc(OC[C@@H]3CN(S(=O)(=O)c4c(C(N)=O)[nH]c5ccc(Cl)cc45)CCO3)ccc2F)cn1` [Compound 29, (S)-5-chloro-3-((2-((4-fluoro-3-(6-methoxypyridin-3-yl)phenoxy)methyl)morpholino)sulfonyl)-1H-indole-2-carboxamide] gave an IC50 of 43.2 nM.

Regarding `NC(=O)c1[nH]c2ccc(Cl)cc2c1S(=O)(=O)N1CCO[C@H](COc2cnc(-c3ccccc3)cn2)C1` [Compound 77, (S)-5-chloro-3-((2-(((5-phenylpyrazin-2-yl)oxy)methyl)morpholino)sulfonyl)-1H-indole-2-carboxamide], the midpoint of inhibition, the IC50, lay at 204 nM.

In turn, `NC(=O)c1[nH]c2ccc(Cl)cc2c1S(=O)(=O)N1CCO[C@H](COc2cccc(-c3ccccn3)c2)C1` [Compound 15, (S)-5-chloro-3-((2-((3-(pyridin-2-yl)phenoxy)methyl)morpholino)sulfonyl)-1H-indole-2-carboxamide] returned a concentration for half-maximal inhibition (IC50) of 3.7 nM.
